From patent US9366682B2, “Use of stathmin as a biomarker of drug response to furazanobenzimidazoles” (BASILEA PHARMACEUTICA AG, priority 2011, dated 2016)

Legend:
Assay type in all cases: cell-based, human
[1] = system: MEXF 989 patient-derived melanoma cells; assay: Colony outgrowth assay, patient-derived melanoma MEXF 989; settings: for Response (sensitive/resistant): colony outgrowth, melanoma MEXF 989 (resistant model 2), by IC70 criteria
Method: (§1) Single cell suspensions of patient-derived tumour xenografts (maintained in nude mice) were prepared. For colony outgrowth assays, cells were plated in soft agar in 24-well plates according to the assay introduced by Hamburger & Salmon (Primary bioassay of human tumour stem cells, Science, 1977, 197:461-463). 2×10^4-6×10^4 cells in 0.2 mL medium containing 0.4% agar were plated out on a bottom layer of 0.75% agar. Test compounds were applied in 0.2 mL culture medium. Every 24-well plate contained untreated controls and samples in triplicates. Cultures were incubated at 37° C. and 7.5% CO2 for 5-28 days. 24 hours prior to analysis, vital colonies were stained with a solution of metabolizable tetrazolium salt (Alley M C et al, Life Sci. 1982, 31:3071-3078) and were counted with an automatic image analysis system (Omnicon 3600, Biosys GmbH).
(§2) Relative drug effects were expressed by the ratio of the mean number of colonies in the treated wells and the control wells. IC70-values were determined by plotting compound concentrations versus relative colony counts.

[2] = system: MEXF 276 patient-derived melanoma cells; assay: Colony outgrowth assay, patient-derived melanoma MEXF 276; set-up: key to Response (sensitive/resistant): BAL27862-sensitive tumour cells were those that had IC70 values in the low nanomolar range; BAL27862-resistant tumour cells had IC70 values >600 nanomolar; settings: for Response (sensitive/resistant): colony outgrowth, melanoma MEXF 276 (resistant model 1), by IC70 criteria
Method: as §1, §2

[3] = system: HeLa cervical cancer cells; assay: Immunofluorescent staining of microtubules in cultured cells; settings: 24 hours treatment with 50 nM, anti-alpha-tubulin staining
Method: (§3) A549 human non-small cell lung cancer (NSCLC, ATCC reference number CCL-185) cells, HeLa cervical cancer cells (ATCC reference number CCL-2) and SKBR3 breast carcinoma cells (ATCC reference number HTB-30) were seeded at densities of 50% on round microscope coverslips and cultured for 24 hours in RPMI-1640 containing 10% FCS (also referred to as FBS) at 37° C., 5% CO2. Compounds to be tested were dissolved in DMSO. The cell culture medium was replaced with medium containing the diluted compound(s) (paclitaxel, vinblastine, colchicine and nocodazole were purchased from Sigma-Aldrich) or vehicle. After treatment for the times indicated in the Brief Description of the Figures, coverslips were washed and cells were fixed in methanol/acetone (1:1) for 5 minutes at room temperature and subsequently incubated in blocking buffer (0.5% BSA and 0.1% TX-100 in PBS) for 30 minutes at room temperature. Specimens were then incubated with anti-alpha-tubulin antibody (Sigma, 1:2000) for 1 hour at room temperature in blocking buffer. After several washing steps cells were incubated with AlexaFluor-488 goat-anti-mouse IgG (Molecular Probes, 1:3000) for 1 hour at room temperature followed by several washing steps with blocking buffer. Specimens were then mounted with ProLong Gold antifade (Molecular Probes), sealed with nail polish and examined with a Leica immunofluorescence microscope. Images were captured with a cooled CCD-camera and processed by ImageJ software.

[4] = system: SKBR3 breast cancer cells; assay: as above; settings: SKBR3, 24 hours treatment with 50 nM, anti-alpha-tubulin staining
Method: as §3

A549 NSCLC cells = assay: as above; settings: for Microtubule phenotype, combination treatment: colchicine; for Microtubule phenotype: A549, 24 hours treatment, mitotic or G2/M arrested cells, anti-alpha-tubulin staining, BAL27862 50 nM, Compound B 80 nM, Compound C 20 nM
Method: as §3

[5] = system: LXFE211 patient-derived lung cancer cells; assay: Colony outgrowth assay, patient-derived lung cancer LXFE211; set-up: key to Response (sensitive/resistant): BAL27862-sensitive tumour cells were those that had IC70 values in the low nanomolar range; BAL27862-resistant tumour cells had IC70 values >600 nanomolar; settings: for Response (sensitive/resistant): colony outgrowth, Lung LXFE211, by IC70 criteria
Method: as §1, §2

[6] = system: GXF 97 patient-derived gastric tumour cells; assay: Colony outgrowth assay, patient-derived gastric tumour GXF 97; set-up: key to Response (sensitive/resistant): BAL27862-sensitive tumour cells were those that had IC70 values in the low nanomolar range; BAL27862-resistant tumour cells had IC70 values >600 nanomolar; settings: for Response (sensitive/resistant): colony outgrowth, Gastric GXF 97, by IC70 criteria
Method: as §1, §2

[7] = system: MEXF 1341 patient-derived melanoma cells; assay: Colony outgrowth assay, patient-derived melanoma MEXF 1341; set-up: key to Response (sensitive/resistant): BAL27862-sensitive tumour cells were those that had IC70 values in the low nanomolar range; BAL27862-resistant tumour cells had IC70 values >600 nanomolar; settings: for Response (sensitive/resistant): colony outgrowth, melanoma MEXF 1341, by IC70 criteria
Method: as §1, §2

[8] = system: GXF 251 patient-derived gastric tumour cells; assay: Colony outgrowth assay, patient-derived gastric tumour GXF 251; set-up: key to Response (sensitive/resistant): BAL27862-sensitive tumour cells were those that had IC70 values in the low nanomolar range; BAL27862-resistant tumour cells had IC70 values >600 nanomolar; settings: for Response (sensitive/resistant): colony outgrowth, Gastric GXF 251, by IC70 criteria
Method: as §1, §2

[9] = system: LXFE397 patient-derived lung cancer cells; assay: Colony outgrowth assay, patient-derived lung cancer LXFE397
Method: as §1, §2

SMILES | Microtubule phenotype (A549 NSCLC cells) | Response (sensitive/resistant) [5] | Response (sensitive/resistant) [6] | Response (sensitive/resistant) [7] | Response (sensitive/resistant) [8] | further results
N#CCCNc1nonc1-c1nc2ccccc2n1CC(=O)c1ccc(N)cc1 [BAL27862, 3-(4-{1-[2-(4-Amino-phenyl)-2-oxo-ethyl]-1H-benzoimidazol-2-yl}-furazan-3-ylamino)-propionitrile] | multiple dot-like structures | sensitive | resistant (BAL27862-resistant tumour cells had IC70 values >600 nanomolar) | sensitive | sensitive | IC70 ([1]; 70% growth inhibition versus controls, melanoma MEXF 989): >3.5 µM; IC70 ([2]; 70% growth inhibition versus controls, melanoma MEXF 276): >3.5 µM; Microtubule phenotype [3]: highly reproducible and distinct microtubule phenotype; Microtubule phenotype [4]: highly reproducible and distinct microtubule phenotype; Microtubule phenotype, combination treatment (A549 NSCLC cells; A549, 24 hours BAL27862 with the final 4 hours including vinblastine, paclitaxel or nocodazole): no impact on the observed microtubule phenotype; Microtubule phenotype (A549 NSCLC cells; listed as compound A): highly reproducible and distinct microtubule phenotype; Microtubule phenotype, combination treatment (A549 NSCLC cells; A549, 24 hours vinblastine, paclitaxel or nocodazole with the final 4 hours including BAL27862): disruption of the microtubule structures; IC70 ([5]; 70% growth inhibition versus controls, Lung LXFE211): 0.021 µM; IC70 ([6]; 70% growth inhibition versus controls, Gastric GXF 97): >3.5 µM; IC70 ([7]; 70% growth inhibition versus controls, melanoma MEXF 1341): 0.025 µM; IC70 ([8]; 70% growth inhibition versus controls, Gastric GXF 251): 0.485 µM; IC70 ([9]; 70% growth inhibition versus controls, Lung LXFE397): >3.5 µM; Response (sensitive/resistant) ([9]; colony outgrowth, Lung LXFE397, by IC70 criteria): resistant (BAL27862-resistant tumour cells had IC70 values >600 nanomolar)
Nc1ccc(C(=O)Cn2c(-c3nonc3N)nc3ccccc32)cc1 [Compound B, 2-[2-(4-Amino-furazan-3-yl)-benzoimidazol-1-yl]-1-(4-amino-phenyl)-ethanone] | highly reproducible and distinct microtubule phenotype | – | – | – | – | –
N#CCCNc1nonc1-c1nc2ccccc2n1CC(=O)c1ccc(N)nc1 [Compound C, 3-(4-{1-[2-(6-Amino-pyridin-3-yl)-2-oxo-ethyl]-1H-benzoimidazol-2-yl}-furazan-3-ylamino)-propionitrile] | highly reproducible and distinct microtubule phenotype | – | – | – | – | –
COc1cc2c(c(OC)c1OC)-c1ccc(OC)c(=O)cc1[C@@H](NC(C)=O)CC2 [colchicine, reference compound] | mitotic microtubule phenotypes characteristic of these agents | – | – | – | – | –
COC(=O)Nc1nc2ccc(C(=O)c3cccs3)cc2[nH]1 [nocodazole, reference compound] | mitotic microtubule phenotypes characteristic of these agents | – | – | – | – | –
CC(=O)O[C@H]1C(=O)[C@@]2(C)[C@H]([C@H](OC(=O)c3ccccc3)[C@]3(O)C[C@H](OC(=O)[C@H](O)[C@@H](NC(=O)c4ccccc4)c4ccccc4)C(C)=C1C3(C)C)[C@]1(OC(C)=O)CO[C@@H]1C[C@@H]2O [paclitaxel, reference compound] | mitotic microtubule phenotypes characteristic of these agents | esistant | resistant (BAL27862-resistant tumour cells had IC70 values >600 nanomolar) | resistant (BAL27862-resistant tumour cells had IC70 values >600 nanomolar) | resistant (BAL27862-resistant tumour cells had IC70 values >600 nanomolar) | Response (sensitive/resistant) [1]: resistant (BAL27862-resistant tumour cells had IC70 values >600 nanomolar); Response (sensitive/resistant) [2]: resistant (BAL27862-resistant tumour cells had IC70 values >600 nanomolar)
CC[C@]1(O)C[C@@H]2CN(CCc3c([nH]c4ccccc34)[C@@](C(=O)OC)(c3cc4c(cc3OC)N(C)[C@H]3[C@@](O)(C(=O)OC)[C@H](OC(C)=O)[C@]5(CC)C=CCN6CC[C@]43[C@@H]65)C2)C1 [vinblastine, reference compound] | mitotic microtubule phenotypes characteristic of these agents | sensitive | sensitive | sensitive | sensitive | Response (sensitive/resistant) [1]: resistant (BAL27862-resistant tumour cells had IC70 values >600 nanomolar); Response (sensitive/resistant) [2]: sensitive
